The values below come from patent publication US20230131899A1, “INHIBITORS OF MICROBIALLY INDUCED AMYLOID” (Axial Therapeutics, Inc., priority 2020, published 2023).

SMILES strings stand for the structures. Read-outs that look alike come from different tables or passages of the source. Where only a bound is given, the exact number is not on record here.

The target in this assay is T1, E. coli CsgA (Escherichia coli, UniProt P28307).
T1 construct: made in house; host or cells: E. coli NEB 3016 slyD::kan, pET11d
T1 sequence (P28307 23-151): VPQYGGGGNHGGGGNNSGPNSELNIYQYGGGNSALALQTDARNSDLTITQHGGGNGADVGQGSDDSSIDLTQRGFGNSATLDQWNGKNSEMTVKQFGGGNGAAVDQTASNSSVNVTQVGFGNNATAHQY
Nature of the assay: In vitro ThioflavinT assay of CsgA aggregation (CsgA ThT Assay). In kind it is biochemical. Particulars: 1005 minutes; for remaining activity at 25 µM: compound 25 μM; for remaining activity at 100 µM: compound 100 μM. Summed up: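 Purified C-terminal His-tagged CsgA, monomerised by desalting and 30-kDa filtration, at 2-20 μM with 20-40 μM ThT in 50 mM potassium phosphate pH 7.3, 1% DMSO, compounds 3.125-200 uM; room temperature, fluorescence (ex 438/em 495 nm) read every 15 min. Background-subtracted signal expressed as percent inhibition versus vehicle at 6-6.5 or 8-9 h, or as percent control AUC.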

The mark [1] stands for this setting: read-out: CsgA ThT Assay (10 μM CsgA) % Control AUC at 1005 minutes, 25 μM (activity range), CsgA 10 μM, black plates, class symbol.
[2] abbreviates: read-out: CsgA ThT Assay (10 μM CsgA) % Control AUC at 1005 minutes, 25 μM, mean AUC as % of DMSO control, CsgA 10 μM, black plates.
Setting [3] is: read-out: CsgA ThT Assay (10 μM CsgA) % Control AUC at 1005 minutes, 100 μM (activity range), CsgA 10 μM, black plates, class symbol.
The mark [4] stands for this setting: read-out: CsgA ThT Assay (10 μM CsgA) % Control AUC at 1005 minutes, 100 μM, mean AUC as % of DMSO control, CsgA 10 μM, black plates.

As for `O=C(O)C1CN(CCCCCO)S(=O)(=O)c2c(-c3cccc(C(F)(F)F)c3)c(Cc3cccc4ccccc34)c(NC3CCCC3)c(=O)n21` (centres unmarked) [Compound 122, 7-(cyclopentylamino)-2-(5-hydroxypentyl)-8-(naphthalen-1-ylmethyl)-6-oxo-9-(3-(trifluoromethyl)phenyl)-3,4-dihydro-2H,6H-pyrido[1,2-e][1,2,5]thiadiazine-4-carboxylic acid 1,1-dioxide], the remaining activity at 25 µM runs as follows: under setting [1], 31 to 60%; under setting [2], 32%. The remaining activity at 100 µM is 11 to 31% under setting [3] and 15% under setting [4].
With `NC(=O)CN1CC(C(=O)O)n2c(c(-c3cccc(C(F)(F)F)c3)c(Cc3cccc4ccccc34)cc2=O)S1(=O)=O` (centres unmarked) [Compound 028, 2-(2-amino-2-oxoethyl)-8-(naphthalen-1-ylmethyl)-6-oxo-9-(3-(trifluoromethyl)phenyl)-3,4-dihydro-2H,6H-pyrido[1,2-e][1,2,5]thiadiazine-4-carboxylic acid 1,1-dioxide], the remaining activity at 25 µM under setting [1] is above 60% and the remaining activity at 25 µM under setting [2] stood at 66%. The remaining activity at 100 µM under setting [3] was in the range of 11 to 31% and the remaining activity at 100 µM under setting [4] was 27%.
`Nc1c(Cc2cccc3ccccc23)c(-c2cccc(C(F)(F)F)c2)c2n(c1=O)C(C(=O)O)CS2(=O)=O` (centres unmarked) [Compound 023, 6-amino-7-(naphthalen-1-ylmethyl)-5-oxo-8-(3-(trifluoromethyl)phenyl)-2,3-dihydro-5H-thiazolo[3,2-a]pyridine-3-carboxylic acid 1,1-dioxide]: the remaining activity at 25 µM under setting [1] is above 60% and the remaining activity at 25 µM under setting [2] stood at 73%. The remaining activity at 100 µM by setting is: under setting [3], 31 to 60%; under setting [4], 34%.
`O=C(O)C1CSc2c(-c3cccc(C(F)(F)F)c3)c(Cc3cccc4ccccc34)nc(=O)n21` (centres unmarked) [Compound 022, 7-(naphthalen-1-ylmethyl)-5-oxo-8-(3-(trifluoromethyl)phenyl)-2,3-dihydro-5H-thiazolo[3,2-c]pyrimidine-3-carboxylic acid]: the remaining activity at 25 µM reads like this: under setting [1], above 60%; under setting [2], 70%. Besides, the remaining activity at 100 µM by setting is: under setting [3], 11 to 31%; under setting [4], 23%.
As to `CN(C)Cc1c(Cc2cccc3ccccc23)c(-c2cccc(C(F)(F)F)c2)c2n(c1=O)C(C(=O)O)CS2` (centres unmarked) [Compound 075, 6-((dimethylamino)methyl)-7-(naphthalen-1-ylmethyl)-5-oxo-8-(3-(trifluoromethyl)phenyl)-2,3-dihydro-5H-thiazolo[3,2-a]pyridine-3-carboxylic acid], the remaining activity at 25 µM is above 60% under setting [1] and 118% under setting [2]. In addition, the remaining activity at 100 µM is above 60% under setting [3] and 117% under setting [4].
As to `O=C(O)C1CN(CCCCO)S(=O)(=O)c2c(-c3cccc(C(F)(F)F)c3)c(Cc3cccc4ccccc34)c(NC3CCCC3)c(=O)n21` (centres unmarked) [Compound 121, 7-(cyclopentylamino)-2-(4-hydroxybutyl)-8-(naphthalen-1-ylmethyl)-6-oxo-9-(3-(trifluoromethyl)phenyl)-3,4-dihydro-2H,6H-pyrido[1,2-e][1,2,5]thiadiazine-4-carboxylic acid 1,1-dioxide], the remaining activity at 25 µM reads like this: under setting [1], 31 to 60%; under setting [2], 32%. In addition, the remaining activity at 100 µM under setting [3] was 11 to 31% and the remaining activity at 100 µM under setting [4] was found to be 15%.
As to `CCCCCN1CC(C(=O)O)n2c(c(-c3cccc(C(F)(F)F)c3)c(Cc3cccc4ccccc34)cc2=O)S1(=O)=O` (racemic) [Compound 025, 8-(naphthalen-1-ylmethyl)-6-oxo-2-pentyl-9-(3-(trifluoromethyl)phenyl)-3,4-dihydro-2H,6H-pyrido[1,2-e][1,2,5]thiadiazine-4-carboxylic acid 1,1-dioxide], the remaining activity at 25 µM by setting is: under setting [1], 31 to 60%; under setting [2], 49%.
As to `CN1CC(C(=O)O)n2c(c(-c3cccc(C(F)(F)F)c3)c(Cc3cccc4ccccc34)c(C(N)=O)c2=O)S1(=O)=O` (centres unmarked) [Compound 109, 7-carbamoyl-2-methyl-8-(naphthalen-1-ylmethyl)-6-oxo-9-(3-(trifluoromethyl)phenyl)-3,4-dihydro-2H,6H-pyrido[1,2-e][1,2,5]thiadiazine-4-carboxylic acid 1,1-dioxide], the remaining activity at 25 µM is 31 to 60% under setting [1] and 55% under setting [2]. For the same compound, the remaining activity at 100 µM was 11 to 31% under setting [3] and 22% under setting [4].
For `O=C(O)[C@@H]1CS(=O)(=O)c2c(-c3cccc(C(F)(F)F)c3)c(Cc3cccc4ccccc34)cc(=O)n21` (single isomer, unassigned) [Compound 010a, 7-(naphthalen-1-ylmethyl)-5-oxo-8-(3-(trifluoromethyl)phenyl)-2,3-dihydro-5H-thiazolo[3,2-a]pyridine-3-carboxylic acid 1,1-dioxide], the remaining activity at 25 µM under setting [1] is above 60% and the remaining activity at 25 µM under setting [2] was determined as 85%. For the same compound, the remaining activity at 100 µM under setting [3] lay in the range of 31 to 60% and the remaining activity at 100 µM under setting [4] is 37%.
`CN1CC(C(=O)O)n2c1c(-c1cccc(C(F)(F)F)c1)c(Cc1cccc3ccccc13)c(Br)c2=O` (centres unmarked) [Compound 119, 6-bromo-1-methyl-7-(naphthalen-1-ylmethyl)-5-oxo-8-(3-(trifluoromethyl)phenyl)-1,2,3,5-tetrahydroimidazo[1,2-a]pyridine-3-carboxylic acid]: the remaining activity at 25 µM under setting [1] was 31 to 60% and the remaining activity at 25 µM under setting [2] came to 47%. The remaining activity at 100 µM runs as follows: under setting [3], 31 to 60%; under setting [4], 35%.
As to `CN1CC(C(N)=O)n2c(c(-c3cccc(C(F)(F)F)c3)c(Cc3cccc4ccccc34)cc2=O)S1(=O)=O` (centres unmarked) [Compound 030, 2-methyl-8-(naphthalen-1-ylmethyl)-6-oxo-9-(3-(trifluoromethyl)phenyl)-3,4-dihydro-2H,6H-pyrido[1,2-e][1,2,5]thiadiazine-4-carboxamide 1,1-dioxide], the remaining activity at 25 µM was above 60% under setting [1] and 82% under setting [2].
For the compound `O=C(O)C1C[S+]([O-])c2c(-c3cccc(C(F)(F)F)c3)c(Cc3cccc4ccccc34)cc(=O)n21` (racemic) [Compound 027b, 7-(naphthalen-1-ylmethyl)-5-oxo-8-(3-(trifluoromethyl)phenyl)-2,3-dihydro-5H-thiazolo[3,2-a]pyridine-3-carboxylic acid 1-oxide], the remaining activity at 25 µM by setting is: under setting [1], above 60%; under setting [2], 108%. Besides, the remaining activity at 100 µM reads like this: under setting [3], above 60%; under setting [4], 74%.
